Drawing on ChEMBL document CHEMBL1125223, “Synthesis and antibacterial activities of C-21 functionalized derivatives of (9R)-9-amino-9-deoxoerythromycins A and B” (1991), this text covers MIC for four compounds.

Format in all cases: functional
In experiment [1] the test system is Klebsiella aerogenes. Description: Concentration required to inhibit Enterobacter aerogenes ATCC 13048 stain by standard agar dilution method.
Experiment [2] relates to Staphylococcus aureus. Description: Concentration required to inhibit Staphylococcus aureus ATCC 6538P stain by standard agar dilution method.
Experiment [3] relates to Staphylococcus aureus. Description: Concentration required to inhibit CMX553 Staphylococcus aureus CMX553 stain by standard agar dilution method.
The test system of experiment [4] is Staphylococcus epidermidis. Description: Concentration required to inhibit Staphylococcus epidermis 3519 stain by standard agar dilution method.
Experiment [5] has as its system Escherichia coli. Description: Concentration required to inhibit Escherichia coli JUHL stain by standard agar dilution method.
For experiment [6], the system named is Streptococcus pyogenes. Description: Concentration required to inhibit Streptococcus pyogenes EES61 stain by standard agar dilution method.
For experiment [7], the system named is Streptococcus pyogenes. Description: Concentration required to inhibit Streptococcus pyogenes 2548 INDUC stain by standard agar dilution method.
The subject of experiment [8] is Enterococcus faecium. Description: Concentration required to inhibit Enterococcus faecium ATCC 8043 stain by standard agar dilution method.
Experiment [9] relates to Micrococcus luteus. Description: Concentration required to inhibit Micrococcus luteus ATCC 4698 stain by standard agar dilution method.
The subject of experiment [10] is Streptococcus agalactiae. Description: Concentration required to inhibit Streptococcus agalactiae CMX508 stain by standard agar dilution method.
Experiment [11] concerns Acinetobacter calcoaceticus. Description: Concentration required to inhibit Acinetobacter calcoaceticus CMX669 stain by standard agar dilution method.
For experiment [12], the system named is Escherichia coli. Description: Concentration required to inhibit Escherichia coli KNK 437 stain by standard agar dilution method.
Experiment [13] concerns Escherichia coli. Description: Concentration required to inhibit Escherichia coli H 560 stain by standard agar dilution method.
Experiment [14] concerns Klebsiella pneumoniae. Description: Concentration required to inhibit Klebsiella pneumoniae ATCC 8045 stain by standard agar dilution method.
In experiment [15] the test system is Streptococcus equinus. Description: Concentration required to inhibit Streptococcus bovis A5169 stain by standard agar dilution method.
The test system of experiment [16] is Escherichia coli. Description: Concentration required to inhibit Escherichia coli SS stain by standard agar dilution method.
The subject of experiment [17] is Pseudomonas aeruginosa. Description: Concentration required to inhibit Pseudomonas aeruginosa K799/61 stain by standard agar dilution method.
Experiment [18] has as its system Micrococcus luteus. Description: Concentration required to inhibit Micrococcus luteus ATCC 9341 stain by standard agar dilution method.
The subject of experiment [19] is Escherichia coli. Description: Concentration required to inhibit Escherichia coli DC-2 stain by standard agar dilution method.
Experiment [20] relates to Pseudomonas aeruginosa. Description: Concentration required to inhibit Pseudomonas aeruginosa K799/WT stain by standard agar dilution method.
In experiment [21] the test system is Burkholderia cepacia. Description: Concentration required to inhibit Pseudomonas cepacia 2961 stain by standard agar dilution method.
Experiment [22] deals with Streptococcus pyogenes. Description: Concentration required to inhibit Streptococcus pyogenes 930CONST stain by standard agar dilution method.
The subject of experiment [23] is Staphylococcus aureus. Description: Concentration required to inhibit 45 stain Staphylococcus aureus 45 by standard agar dilution method.

≈ marks a conversion by molar mass, not a printed value. Where only a bound is given, the exact number is not on record here.

With `CC[C@H]1OC(=O)[C@H](C)[C@@H](O[C@H]2C[C@@](C)(OC)[C@@H](O)[C@H](C)O2)[C@H](C)[C@@H](O[C@@H]2O[C@H](C)C[C@H](N(C)C)[C@H]2O)[C@@](C)(O)C[C@@H](C)[C@@H](N(C)C)[C@H](C)[C@@H](O)[C@]1(C)O`, the MIC in experiment [1] came out at 50 µg/mL (≈ 65.5 µM); in [2], 0.39 µg/mL (≈ 0.511 µM); in experiment [3], 0.78 µg/mL (≈ 1.02 µM); in [4], 0.39 µg/mL (≈ 0.511 µM); in [5], 50 µg/mL (≈ 65.5 µM); in [6], 0.05 µg/mL (≈ 0.0655 µM). Also, the MIC in experiment [7] is 100 µg/mL (≈ 131 µM); in experiment [8], 0.2 µg/mL (≈ 0.262 µM); in experiment [9], 0.1 µg/mL (≈ 0.131 µM); in experiment [10], 0.1 µg/mL (≈ 0.131 µM); in [11], 12.5 µg/mL (≈ 16.4 µM); in [12] it was 50 µg/mL (≈ 65.5 µM). In addition, the MIC in [13] was 12.5 µg/mL (≈ 16.4 µM); in experiment [14], 25 µg/mL (≈ 32.8 µM); in [15] it was 0.1 µg/mL (≈ 0.131 µM); in experiment [16], 0.1 µg/mL (≈ 0.131 µM); in experiment [17], 12.5 µg/mL (≈ 16.4 µM); in experiment [18] it was 0.1 µg/mL (≈ 0.131 µM). The MIC in [19] is 25 µg/mL (≈ 32.8 µM); in experiment [20], over 100 µg/mL; in experiment [21], over 100 µg/mL; in experiment [22], over 100 µg/mL; in [23], 0.78 µg/mL (≈ 1.02 µM).

For the compound `CC[C@H]1OC(=O)[C@H](C)[C@@H](O[C@H]2C[C@@](C)(OC)[C@@H](O)[C@H](C)O2)[C@H](C)[C@@H](O[C@@H]2O[C@H](C)C[C@H](N(C)C)[C@H]2O)[C@@](C)(O)C[C@@H](C)[C@@H](N(C)C)[C@H](C)[C@@H](O)[C@@]1(O)CO`, the MIC in experiment [1] is over 100 µg/mL; in experiment [2] it was 25 µg/mL (≈ 32.1 µM); in [3], 25 µg/mL (≈ 32.1 µM); in experiment [4] it was 25 µg/mL (≈ 32.1 µM); in experiment [5], over 100 µg/mL; in experiment [6], 1.56 µg/mL (≈ 2 µM). The MIC in experiment [7] is 100 µg/mL (≈ 128 µM); in experiment [8], 12.5 µg/mL (≈ 16 µM); in experiment [9] it was 3.1 µg/mL (≈ 3.98 µM); in [10] it was 3.1 µg/mL (≈ 3.98 µM); in experiment [11] it was over 100 µg/mL; in experiment [12], over 100 µg/mL. The MIC in [13] was 25 µg/mL (≈ 32.1 µM); in experiment [14] it was over 100 µg/mL; in experiment [15], 3.1 µg/mL (≈ 3.98 µM); in experiment [16], 1.56 µg/mL (≈ 2 µM); in [17] it was 50 µg/mL (≈ 64.2 µM); in experiment [18], 6.2 µg/mL (≈ 7.96 µM). The MIC was 50 µg/mL (≈ 64.2 µM) in experiment [19]; over 100 µg/mL in experiment [20]; over 100 µg/mL in experiment [21]; over 100 µg/mL in experiment [22]; 25 µg/mL (≈ 32.1 µM) in experiment [23].

Turning to `CC[C@H]1OC(=O)[C@H](C)[C@@H](O[C@H]2C[C@@](C)(OC)[C@@H](O)[C@H](C)O2)[C@H](C)[C@@H](O[C@@H]2O[C@H](C)C[C@H](N(C)C)[C@H]2O)[C@@](C)(O)C[C@@H](C)[C@@H](N(C)C)[C@H](C)[C@@H](O)[C@H]1CO`, the MIC in experiment [1] is 100 µg/mL (≈ 131 µM); in experiment [2], 6.2 µg/mL (≈ 8.13 µM); in experiment [3], 6.2 µg/mL (≈ 8.13 µM); in [4], 6.2 µg/mL (≈ 8.13 µM); in experiment [5] it was over 100 µg/mL; in [6] it was 0.39 µg/mL (≈ 0.511 µM). The minimal inhibitory concentration (MIC) in experiment [7] is 50 µg/mL (≈ 65.5 µM); in experiment [8] it was 1.56 µg/mL (≈ 2.04 µM); in [9], 0.78 µg/mL (≈ 1.02 µM); in experiment [10], 0.78 µg/mL (≈ 1.02 µM); in [11], 3.1 µg/mL (≈ 4.06 µM); in experiment [12], 100 µg/mL (≈ 131 µM). Moreover, the MIC was 25 µg/mL (≈ 32.8 µM) in experiment [13]; 50 µg/mL (≈ 65.5 µM) in [14]; 0.78 µg/mL (≈ 1.02 µM) in experiment [15]; 0.39 µg/mL (≈ 0.511 µM) in [16]; 1.56 µg/mL (≈ 2.04 µM) in experiment [17]; 0.78 µg/mL (≈ 1.02 µM) in [18]. Also, the MIC was 50 µg/mL (≈ 65.5 µM) in [19]; 50 µg/mL (≈ 65.5 µM) in experiment [20]; 100 µg/mL (≈ 131 µM) in experiment [21]; over 100 µg/mL in experiment [22]; 6.2 µg/mL (≈ 8.13 µM) in [23].

With `CC[C@H]1OC(=O)[C@H](C)[C@@H](O[C@H]2C[C@@](C)(OC)[C@@H](O)[C@H](C)O2)[C@H](C)[C@@H](O[C@H]2O[C@H](C)C[C@H](N(C)C)[C@H]2O)[C@@](C)(O)C[C@@H](C)[C@@H](N(C)C)[C@H](C)[C@@H](O)[C@@]12CO2`, the minimal inhibitory concentration (MIC) in [1] is over 100 µg/mL; in [2] it was 0.78 µg/mL (≈ 1.02 µM); in experiment [3], 0.78 µg/mL (≈ 1.02 µM); in experiment [4], 0.39 µg/mL (≈ 0.512 µM); in experiment [5], 100 µg/mL (≈ 131 µM); in experiment [6] it was 0.05 µg/mL (≈ 0.0657 µM). Further, the MIC in [7] was 6.2 µg/mL (≈ 8.15 µM); in experiment [8] it was 0.02 µg/mL (≈ 0.0263 µM); in experiment [9] it was 0.1 µg/mL (≈ 0.131 µM); in experiment [10] it was 0.05 µg/mL (≈ 0.0657 µM); in [11], 12.5 µg/mL (≈ 16.4 µM); in experiment [12] it was 100 µg/mL (≈ 131 µM). Further, the MIC in experiment [13] stood at 25 µg/mL (≈ 32.9 µM); in experiment [14], 100 µg/mL (≈ 131 µM); in experiment [15], 0.02 µg/mL (≈ 0.0263 µM); in experiment [16] it was 0.39 µg/mL (≈ 0.512 µM); in experiment [17], 12.5 µg/mL (≈ 16.4 µM); in experiment [18] it was 0.1 µg/mL (≈ 0.131 µM). The minimum inhibitory concentration (MIC) was 50 µg/mL (≈ 65.7 µM) in [19]; over 100 µg/mL in experiment [20]; over 100 µg/mL in experiment [21]; over 100 µg/mL in experiment [22]; 0.78 µg/mL (≈ 1.02 µM) in [23].
